Read-outs that look alike come from different tables or passages of the source.
Tests used:
[1] = system: U87MG tumours; assay: U87MG subcutaneous xenograft model; assay type: in vivo, Male athymic nude mice; details: oral 100 mg/kg on days 1, 4 and 7; day 13
Description: Male athymic nude mice bearing U87MG tumours were given an oral dose of 100 mg/kg of atropisomer A-2 on days 1, 4 and 7 and the tumour volumes were measured over 20 days. Tumour volumes in a control group of tumour-bearing mice, who had received vehicle only at the same time points were also measured.

[2] = system: HeLa cells stably expressing a Centrin1-GFP fusion protein; assay: Centriole number in Centrin1-GFP HeLa cells; assay type: cell-based; details: 0.02 μM, 72 hours
Description: The effects of A-1 and A-2 on centrosome function were therefore investigated further. HeLa cells stably expressing a Centrin1-GFP fusion protein were seeded into 96-well plates overnight. Cells were treated with atropisomer A-1 or atropisomer A-2 (at concentrations of 0.02 μM in DMSO) or DMSO control for 72 hours and then imaged using a fluorescence microscope. Multiple cell fields were captured for each treatment condition, and the images were subsequently analysed manually. Centrin1-GFP specifically marks centrioles as discrete foci, and therefore can be used to quantitate centriole number per cell. Thus, for each treatment condition, 100 cells were analysed and the number of centrioles present in each cell was recorded. The data were then separated into bins (no centrioles, 1 centriole, 2 centrioles, and greater than 2 centrioles) and are shown in FIG. 11.

[3] = Gravimetric solubility in water; assay type: physicochemical; details: thermodynamic from solid; gravimetric, water
Description: The solubility in water of the salts was measured using a gravimetric solubility protocol.
(§1) 1 ml of water was charged into crystallisation tubes. The solid was weighed into a tared glass vial, added in portions to the solutions and the vial weighed after each addition until a hazy solution was observed. The amount in mg was then calculated to give the solubility in mg/ml.
as §1, with “The solubility in water of the salts was measured using a gravimetric solubility protocol. Thus, 1” for “1”, “mg/mL.” for “mg/ml.”

[4] = target: T1, PLK4 catalytic domain (Homo sapiens, UniProt O00444); assay: DiscoverX KinomeScreen competition binding assay, PLK4; details: read-out: % Ctrl @ 3 μM
T1 construct: purchased DiscoverX; host or cells: T7 phage in E. coli (BL21-derived) or HEK-293
T1 sequence (O00444 12-265 limits assumed): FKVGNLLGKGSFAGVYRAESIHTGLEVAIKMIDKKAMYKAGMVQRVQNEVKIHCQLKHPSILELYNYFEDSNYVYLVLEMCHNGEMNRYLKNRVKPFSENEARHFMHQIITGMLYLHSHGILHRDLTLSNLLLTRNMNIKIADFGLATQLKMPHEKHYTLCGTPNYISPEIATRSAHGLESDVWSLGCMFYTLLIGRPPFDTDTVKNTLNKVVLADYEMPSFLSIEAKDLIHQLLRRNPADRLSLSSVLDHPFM
Description: Atropisomer A-2 has been tested for off-target activity against a panel of ninety-seven kinases distributed across the kinome at a concentration of 3 μM using the DiscoverX KinomeScreen assay. The DiscoverX KinomeScreen assay is a site-directed competition binding assay which measures the binding affinity of a compound to a kinase, by use of a solid supported control compound which can bind or capture the kinases in solution. In the absence of a kinase-inhibitor test compound, all of the kinase will bind to the solid support. If a kinase-inhibitor test compound is added to the assay mix, the amount of kinase binding to the solid support will be reduced, the extent of reduction being dependent on the potency of the test compound as a kinase inhibitor. […] For most assays, kinase-tagged T7 phage strains were grown in parallel in 24-well blocks in an E. coli host derived from the BL21 strain. […] The kinase concentration in the eluates was measured by qPCR. […] The strength of binding of the test molecule to the kinase can be expressed as the percent control (% Ctrl) The compound(s) were screened at 3000 nM concentration, and results for primary screen binding interactions are reported as ‘% Ctrl’, where lower numbers indicate stronger hits in the matrix on the following page(s). […]

[5] = Mouse PK, plasma after i.v. and p.o. dosing (oral bioavailability); assay type: in vivo, Male CD-1 mice; details: for half-life: read-out: T ½ (converted)
Description: Atropisomers A-2 and A-3 were evaluated in an in vivo mouse model to determine brain and plasma concentrations following p.o. and i.v. dosing.
Male CD-1 mice were dosed with the compounds of Examples A-2 and A-3, either by i.v. administration (2 mg/kg) or by p.o. administration (10 mg/kg). Eight samples were taken for analysis in the i.v. leg at 2, 10, 30 min, 1, 2, 4, 8, and 24 (for i.v) and 9 samples in the p.o. leg at 15, 30 min, 1, 2, 4, 8, 24, 48 and 72 hrs.
The compounds of Examples A-2 and A-3 were both formulated in 10% DMSO/90% hydroxypropyl-beta-cyclodextrin (20% w/v in water) for i.v. and p.o. dosing. N =3 mice per time point.
Post dosing, terminal blood samples were taken from individual animals and delivered into labelled polypropylene tubes containing anticoagulant (EDTA). The samples were held on wet ice for a maximum of 30 min while sampling of all the animals in the cohort was completed. The blood samples were centrifuged for plasma (4° C., 21100 g for 5 min) and the resulting plasma transferred into corresponding labelled tubes. Terminal brains from each PO dosed animal were excised, rinsed with saline and placed into pre-weighed labelled polypropylene tubes and the samples re-weighed prior to storage.
Quantitative bioanalysis was carried out using liquid chromatography—mass spectroscopy was performed. The results are shown in Tables 14, 15 and 16 below and in FIGS. 12 to 15.

[6] = mouse, 2 mg/kg, 2 mq/Kq IV, male CD-1 mice, plasma
[7] = mouse, 10 mg/kg, 10 mq/Kq PO, male CD-1 mice, plasma

solubility [3]: < 5000 µg/mL | remaining binding at 3 µM [4]: 100% | CI ([5]; 2 mq/Kq IV, male CD-1 mice, plasma): 20.5 mL/min/kg | F ([5]; 10 mq/Kq PO vs 2 mq/Kq IV, male CD-1 mice): 76% | AUC(0-inf) [5, 6]: 1620 ng·h/mL | Cmax [5, 6]: 278 ng/mL | half-life [5, 6]: 9 h | AUC(0-inf) [5, 7]: 6130 ng·h/mL | Cmax [5, 7]: 265 ng/mL | half-life [5, 7]: 10.7 h | AUC(0-t) ([5]; mouse, po, plasma, p.o. 10 mg/kg, male CD-1 mice, read-out: AUClast plasma): 6130 ng·h/mL | oral absorption / oral bioavailability (in words) ([5]; oral dosing in mice): highly absorbed
Structure (SMILES): CN(C)CCNC(=O)c1ccc(-c2ccc(-c3ccc(Cl)cc3)n2-c2ccccc2C(F)(F)F)cc1 (single isomer, unassigned) [Atropisomer A-2, 4-[5-(4-chlorophenyl)-1-[2-(trifluoromethyl)phenyl]pyrrol-2-yl]-N-[2-(dimethylamino)ethyl]benzamide]
tumour volume % T/C [1]: 3.85% | PLK4 inhibition phenotypes (centriole number) [2]: exhibits evidence of PLK4 inhibition phenotypes
